{"source": "patent US8178506B2", "about": "“Oligomeric compounds and compositions for use in modulation of small non-coding RNAs” (Regulus Therapeutics Inc., priority 2003, dated 2012)", "key": {"[1]": {"tested_on": "Glut4", "assay": "Glut4 mRNA expression in adipocytes (real-time PCR)", "assay_type": "cell-based, human", "details": "differentiating adipocytes transfected with oligomeric compound; Table 75"}, "[2]": {"tested_on": "adipocytes", "assay": "Triglyceride accumulation assay in adipocytes", "assay_type": "cell-based, human", "details": "differentiating adipocytes transfected with oligomeric compound; Table 75"}, "[3]": {"tested_on": "follistatin", "assay": "Follistatin mRNA expression in HepG2 cells", "assay_type": "cell-based, human", "details": "for Follistatin mRNA expression: Experiment 2, insulin treated: HepG2 cells transfected with oligomeric compound, 1 nM insulin for four hours, UTC + 1 nM insulin = 100", "description": "(§1) Approximately 28 hours after transfection, the cells are subjected to serum starvation for a period of 12 to 16 hours, using serum-free growth medium. Following serum starvation, cells are treated with 1 nM insulin (insulin-treated) or are left untreated (basal conditions) for approximately four hours. At the same time, untreated control cells in both plates are treated with 100 nM insulin to determine the maximal insulin response. Following insulin treatment (forty-eight hours after transfection), total RNA is harvested from all samples, and the amount of total RNA from each sample is determined using a Ribogreen assay (Invitrogen Corporation, Carlsbad, Calif.). Real-time PCR is performed on the total RNA samples using primer/probe sets for three insulin responsive genes: insulin-like growth factor binding protein-1 (IGFBP-1), cytosolic PEPCK (PEPCK-C), and follistatin. Gene expression levels obtained by real-time PCR are normalized for total RNA content in the samples.\n(§2) Oligomeric compounds of the present invention were tested for their effects on insulin signaling in HepG2 cells. HepG2 cells were plated at 7500 cells/well in collagen coated 96-well plates. The following day, cells were transfected with oligomeric compounds targeting miRNAs using 100 nM oligomeric compound in LIPOFECTIN™ (Invitrogen Corporation, Carlsbad, Calif.) in two 96-well plates. The oligomeric compounds were tested in triplicate on each 96-well plate, except for positive and negative controls, which were measured up to six times per plate. At the end of transfection, the transfection medium was replaced by regular growth medium. Twenty-eight hours post-transfection, the cells were subjected to overnight (sixteen to eighteen hours) serum starvation using serum free growth medium. Forty-four hours post-transfection, the cells in the transfected wells were treated with either no insulin (“basal” Experiment 1, for identification of insulin-mimetic compounds) or with 1 nM insulin (“insulin treated” Experiment 2, for identification of insulin sensitizers) for four hours. At the same time, in both plates, cells in some of the un-transfected control wells are treated with 100 nM insulin to determine maximal insulin response. At the end of the insulin or no-insulin treatment (forty-eight hours post-transfection), total RNA is isolated from both the basal and insulin treated (1 nM) 96-well plates, and the amount of total RNA from each sample is determined using a Ribogreen assay (Molecular Probes, Eugene, Oreg.). Real-time PCR is performed on all the total RNA samples using primer/probe sets for three insulin responsive genes: PEPCK-c, IGFBP-1 and follistatin. Expression levels for each gene are normalized to total RNA, and values+standard deviation are expressed relative to the transfectant only untreated control (UTC) and negative control compounds.\n(§3) Protocols for treatment of HepG2 cells and transfection of oligomeric compounds are as described in Example 18. Also as described in Example 18, forty-four hours post-transfection, the cells in the transfected wells were treated with either no insulin (“basal” Experiment 3 (below), for identification of insulin-mimetic compounds) or with 1 nM insulin (“insulin treated” Experiment 4 (below), for identification of insulin sensitizers) for four hours. At the same time, in both plates, cells in some of the un-transfected control wells are treated with 100 nM insulin to determine maximal insulin response. At the end of the insulin or no-insulin treatment (forty-eight hours post-transfection), total RNA is isolated from both the basal and insulin treated (1 nM) 96-well plates, and the amount of total RNA from each sample is determined using a Ribogreen assay (Molecular Probes, Eugene, Oreg.)."}, "[4]": {"tested_on": "HSL", "assay": "HSL mRNA expression in adipocytes (real-time PCR)", "assay_type": "cell-based, human", "details": "differentiating adipocytes transfected with oligomeric compound; Table 75"}, "[5]": {"tested_on": "IGFBP-1", "assay": "IGFBP-1 mRNA expression in HepG2 cells", "assay_type": "cell-based, human", "details": "for IGFBP1 mRNA expression: Experiment 2, insulin treated: HepG2 cells transfected with oligomeric compound, 1 nM insulin for four hours, UTC + 1 nM insulin = 100", "description": "as §1, §2, §3"}, "[6]": {"tested_on": "PEPCK-c", "assay": "PEPCK-c mRNA expression in HepG2 cells", "assay_type": "cell-based, human", "details": "for PEPCKc mRNA expression: Experiment 2, insulin treated: HepG2 cells transfected with oligomeric compound, 1 nM insulin for four hours, UTC + 1 nM insulin = 100", "description": "as §1, §2, §3"}, "[7]": {"tested_on": "aP2", "assay": "aP2 mRNA expression in adipocytes (real-time PCR)", "assay_type": "cell-based, human", "details": "differentiating adipocytes transfected with oligomeric compound; Table 75"}, "[8]": {"tested_on": "PPARγ", "assay": "PPARγ mRNA expression in adipocytes (real-time PCR)", "assay_type": "cell-based, human", "details": "differentiating adipocytes transfected with oligomeric compound; Table 75"}, "[9]": {"tested_on": "HeLa cells", "assay": "Cell cycle assay in HeLa cells", "assay_type": "cell-based, human", "details": "HeLa cells, 150 nM oligomeric compound"}, "[10]": {"tested_on": "T47D cells", "assay": "Caspase-3 activity assay (apoptosis) in T47D cells", "details": "T47D cells, 48 hours"}, "[11]": {"details": "HepG2 cells, Experiment 1, basal (no insulin), four hours, UTC = 100"}, "[12]": {"details": "Experiment 3, basal (no insulin), HepG2 cells, 48 hours post-transfection"}, "[13]": {"details": "Experiment 4, insulin-sensitization: HepG2 cells treated with 1 nM insulin for four hours, 48 h post-transfection, mRNA by real-time PCR"}, "[14]": {"details": "24 hours, relative to untreated control (UTC = 100)"}, "[15]": {"details": "48 hours after treatment, relative to untreated control (UTC=100)"}}, "note": "In the oligonucleotide strings, read from the 5' end, every base follows the letter of its sugar. An asterisk marks phosphorothioate; unmarked linkages are phosphodiester. Other units and linkages are bracketed, terminal groups are in braces. A string of capitals states the bases alone. e = 2'-O-(2-methoxyethyl) (MOE); [5mC] = 5-methylcytosine; d = 2'-deoxy (DNA)"}
{"substance": "341802 (antisense AGCUGCUUUUGGGAUUCCGUUG; all 2'-MOE, all phosphorothioate, methylation of C and T or U not given here) [compound 341802]", "values": [{"measurement": "GLUT4 mRNA", "setting": "[1]", "result": "85 percentage of untreated control (UTC)"}, {"measurement": "TG (triglyceride accumulation)", "setting": "[2]", "result": "155 percentage of untreated control (UTC)"}, {"measurement": "Follistatin mRNA", "setting": "[3]; [11]", "result": 136}, {"measurement": "HSL mRNA", "setting": "[4]", "result": "121 percentage of untreated control (UTC)"}, {"measurement": "IGFBP1 mRNA", "setting": "[5]; [11]", "result": 186}, {"measurement": "PEPCKc mRNA", "setting": "[6]; [11]", "result": 98}, {"measurement": "aP2 mRNA", "setting": "[7]", "result": "98 percentage of untreated control (UTC)"}, {"measurement": "PPAR gamma mRNA", "setting": "[8]", "result": "127 percentage of untreated control (UTC)"}]}
{"substance": "328765 (antisense eG*eA*e[5mC]*eA*eA*dA*d[5mC]*dT*d[5mC]*dA*dG*d[5mC]*dT*dA*dT*eA*eT*eT*eG*eT) [compound 328765]", "values": [{"measurement": "Follistatin (% UTC)", "setting": "[3]; [12]", "result": 87, "unit": "% UTC"}, {"measurement": "Follistatin (% UTC)", "setting": "[3]; [13]", "result": 97, "unit": "% UTC"}, {"measurement": "IGFBP-1 (% UTC)", "setting": "[5]; [12]", "result": 88, "unit": "% UTC"}, {"measurement": "IGFBP-1 (% UTC)", "setting": "[5]; [13]", "result": 94, "unit": "% UTC"}, {"measurement": "PEPCK-c (% UTC)", "setting": "[6]; [12]", "result": 93, "unit": "% UTC"}, {"measurement": "PEPCK-c (% UTC)", "setting": "[6]; [13]", "result": 73, "unit": "% UTC"}]}
{"substance": "328776 (antisense eT*e[5mC]*e[5mC]*eT*eG*dT*dA*dA*dT*dT*dA*dT*dA*dG*dG*e[5mC]*eT*eA*eG*e[5mC]) [compound 328776]", "values": [{"measurement": "Follistatin mRNA expression", "setting": "[3]", "result": 114}, {"measurement": "IGFBP1 mRNA expression", "setting": "[5]", "result": 86}, {"measurement": "PEPCKc mRNA expression", "setting": "[6]", "result": 125}]}
{"substance": "328397 (antisense eT*eT*eG*eA*eT*d[5mC]*d[5mC]*dA*dT*dA*dT*dG*d[5mC]*dA*dA*e[5mC]*eA*eA*eG*eG) [compound 328397]", "values": [{"measurement": "% cells aneuploid", "setting": "[9]; [14]", "result": 91, "unit": "%"}, {"measurement": "% cells in cell cycle phase G1", "setting": "[9]; [14]", "result": 93, "unit": "%"}, {"measurement": "% cells in cell cycle phase G2/M", "setting": "[9]; [14]", "result": 142, "unit": "%"}, {"measurement": "% cells in cell cycle phase S", "setting": "[9]; [14]", "result": 86, "unit": "%"}, {"measurement": "% cells in cell cycle phase subG1", "setting": "[9]; [14]", "result": 134, "unit": "%"}, {"measurement": "% cells in cell cycle phase: G1", "setting": "[9]; [15]", "result": 97, "unit": "%"}, {"measurement": "% cells in cell cycle phase: G2/M", "setting": "[9]; [15]", "result": 109, "unit": "%"}, {"measurement": "% cells in cell cycle phase: S", "setting": "[9]; [15]", "result": 101, "unit": "%"}, {"measurement": "% cells in cell cycle phase: aneuploid", "setting": "[9]; [15]", "result": 96, "unit": "%"}, {"measurement": "% cells in cell cycle phase: subG1", "setting": "[9]; [15]", "result": 74, "unit": "%"}, {"measurement": "Follistatin mRNA expression", "setting": "[3]", "result": 75}, {"measurement": "Fold Increase over UTC (caspase activity)", "setting": "[10]; 200 nM, relative to untreated control", "result": 1.2}, {"measurement": "IGFBP1 mRNA expression", "setting": "[5]", "result": 57}, {"measurement": "PEPCKc mRNA expression", "setting": "[6]", "result": 76}]}
{"substance": "328384 (eT*e[5mC]*eA*e[5mC]*eG*dT*dG*dG*dA*dG*dA*dG*dG*dA*dG*eT*eT*eA*eA*eA; antisense) [compound 328384]", "values": [{"measurement": "Follistatin (% UTC)", "setting": "[3]; [12]", "result": 110, "unit": "% UTC"}, {"measurement": "Follistatin (% UTC)", "setting": "[3]; [13]", "result": 121, "unit": "% UTC"}, {"measurement": "Fold Increase over UTC (caspase-3 activity, apoptosis)", "setting": "[10]; 200 nM oligomeric compound, experiment of Table 11", "result": 1.0, "unit": "fold"}, {"measurement": "IGFBP-1 (% UTC)", "setting": "[5]; [12]", "result": 139, "unit": "% UTC"}, {"measurement": "IGFBP-1 (% UTC)", "setting": "[5]; [13]", "result": 102, "unit": "% UTC"}, {"measurement": "PEPCK-c (% UTC)", "setting": "[6]; [12]", "result": 142, "unit": "% UTC"}, {"measurement": "PEPCK-c (% UTC)", "setting": "[6]; [13]", "result": 114, "unit": "% UTC"}]}
{"substance": "328761 (antisense eG*e[5mC]*eA*eG*eG*d[5mC]*dT*dA*dA*dA*dA*dG*dA*dA*dA*eT*eA*eA*eG*e[5mC]) [compound 328761]", "values": [{"measurement": "Follistatin mRNA expression", "setting": "[3]", "result": 53}, {"measurement": "Follistatin (% UTC)", "setting": "[3]; [12]", "result": 91, "unit": "% UTC"}, {"measurement": "Follistatin (% UTC)", "setting": "[3]; [13]", "result": 98, "unit": "% UTC"}, {"measurement": "IGFBP1 mRNA expression", "setting": "[5]", "result": 193}, {"measurement": "IGFBP-1 (% UTC)", "setting": "[5]; [12]", "result": 118, "unit": "% UTC"}, {"measurement": "IGFBP-1 (% UTC)", "setting": "[5]; [13]", "result": 93, "unit": "% UTC"}, {"measurement": "PEPCKc mRNA expression", "setting": "[6]", "result": 64}, {"measurement": "PEPCK-c (% UTC)", "setting": "[6]; [12]", "result": 48, "unit": "% UTC"}, {"measurement": "PEPCK-c (% UTC)", "setting": "[6]; [13]", "result": 55, "unit": "% UTC"}]}
